The record followed here is patent publication US10093630B2, “Pyrazole compounds and methods of making and using same” (ABIDE THERAPEUTICS, INC., priority 2014, dated 2018).

Holding throughout (experiment): In vitro competitive activity-based protein profiling (gel-based, FP-Rh or HT-01 probe)
Format in all cases: biochemical

Test [1] concerns the target T1, MAGL (Mus musculus, UniProt O35678).
T1 construct: Proteomes (mouse brain membrane fraction or cell lysates); from tissue; host or cells: mouse brain membrane fraction (or cell lysates, not specified)
T1 sequence (O35678 1-303): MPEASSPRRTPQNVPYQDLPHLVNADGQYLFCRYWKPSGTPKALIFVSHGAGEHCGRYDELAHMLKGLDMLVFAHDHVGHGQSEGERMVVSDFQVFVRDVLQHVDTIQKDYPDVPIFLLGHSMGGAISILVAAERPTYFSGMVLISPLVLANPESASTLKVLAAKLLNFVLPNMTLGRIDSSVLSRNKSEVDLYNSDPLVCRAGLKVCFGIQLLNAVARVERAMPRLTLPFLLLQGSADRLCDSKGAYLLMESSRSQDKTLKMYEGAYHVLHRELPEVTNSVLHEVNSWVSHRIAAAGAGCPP
The following applies: for inhibition at 1 µM: 1 μM inhibitor; for inhibition at 10 µM: 10 μM inhibitor; for IC50: mouse brain membrane fraction or cell lysates, 30 min preincubation at 37° C., read-out: Mouse (IC50 value, nM) MAGL. The procedure: (§1) In Vitro Competitive Activity-Based Protein Profiling.
(§2) Proteomes (mouse brain membrane fraction or cell lysates) (50 μL, 1.0 mg/mL total protein concentration) were preincubated with varying concentrations of inhibitors at 37° C. After 30 min, FP-Rh or HT-01 ([…], 50 μM in DMSO) was added and the mixture was incubated for another 30 min at 37° C. Reactions were quenched with SDS loading buffer (15 μL—4×) and run on SDS-PAGE. Following gel imaging, serine hydrolase activity was determined by measuring fluorescent intensity of gel bands corresponding to MAGL, ABHD6, FAAH, and PLA2G7 using ImageJ 1.43u software.

For test [2], the target named is T2, FAAH (Mus musculus, UniProt O08914).
T2 construct: Proteomes (mouse brain membrane fraction or cell lysates); from tissue; host or cells: mouse brain membrane fraction (or cell lysates, not specified)
T2 sequence (O08914 1-579): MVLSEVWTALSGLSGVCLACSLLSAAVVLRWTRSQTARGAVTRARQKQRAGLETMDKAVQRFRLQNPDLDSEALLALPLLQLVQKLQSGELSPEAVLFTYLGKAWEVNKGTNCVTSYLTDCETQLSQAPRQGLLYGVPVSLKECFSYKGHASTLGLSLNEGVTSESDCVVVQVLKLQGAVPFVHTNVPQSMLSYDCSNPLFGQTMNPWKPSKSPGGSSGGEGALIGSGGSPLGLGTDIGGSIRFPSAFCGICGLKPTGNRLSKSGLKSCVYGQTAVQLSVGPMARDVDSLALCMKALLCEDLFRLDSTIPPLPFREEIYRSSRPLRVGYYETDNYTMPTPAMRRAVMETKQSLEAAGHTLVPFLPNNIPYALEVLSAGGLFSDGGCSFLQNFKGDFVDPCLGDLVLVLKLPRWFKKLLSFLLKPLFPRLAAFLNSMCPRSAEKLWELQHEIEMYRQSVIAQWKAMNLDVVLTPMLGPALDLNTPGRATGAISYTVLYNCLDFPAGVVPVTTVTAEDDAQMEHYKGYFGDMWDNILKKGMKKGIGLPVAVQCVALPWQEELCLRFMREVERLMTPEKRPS
The following applies: for inhibition at 1 µM: 1 μM inhibitor, read-out: % Inhibition at 1 μM, B = FAAH; for inhibition at 10 µM: 10 μM inhibitor, read-out: % Inhibition at 10 μM, B = FAAH; for IC50: mouse brain membrane fraction or cell lysates, 30 min preincubation at 37° C., read-out: Mouse (IC50 value, nM) FAAH. How it is done: as §1, §2

The target of test [3] is T3, ABHD6 (Mus musculus, UniProt Q8R2Y0).
T3 construct: Proteomes (mouse brain membrane fraction or cell lysates); from tissue; host or cells: mouse brain membrane fraction (or cell lysates, not specified)
T3 sequence (Q8R2Y0 1-336): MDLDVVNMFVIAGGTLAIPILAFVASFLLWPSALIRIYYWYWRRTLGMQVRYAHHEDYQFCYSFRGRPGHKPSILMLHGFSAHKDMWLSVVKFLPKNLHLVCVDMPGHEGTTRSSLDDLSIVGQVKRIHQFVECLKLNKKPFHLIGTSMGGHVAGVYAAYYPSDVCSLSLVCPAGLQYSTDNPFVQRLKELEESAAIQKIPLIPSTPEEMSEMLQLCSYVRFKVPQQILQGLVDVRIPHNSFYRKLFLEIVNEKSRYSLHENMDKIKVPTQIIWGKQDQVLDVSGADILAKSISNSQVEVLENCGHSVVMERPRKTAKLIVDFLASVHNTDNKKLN
The note with it: for inhibition at 1 µM: 1 μM inhibitor, read-out: % Inhibition at 1 μM, C = ABHD6; for inhibition at 10 µM: 10 μM inhibitor, read-out: % Inhibition at 10 μM, C = ABHD6; for IC50: mouse brain membrane fraction or cell lysates, 30 min preincubation at 37° C., read-out: Mouse (IC50 value, nM) ABHD6. The procedure:
as §1, §2

Test [4] has as its target T4, PLA2G7 (Mus musculus, UniProt Q60963).
T4 construct: Proteomes (mouse brain membrane fraction or cell lysates); from tissue; host or cells: mouse brain membrane fraction (or cell lysates, not specified)
T4 sequence (Q60963 22-440): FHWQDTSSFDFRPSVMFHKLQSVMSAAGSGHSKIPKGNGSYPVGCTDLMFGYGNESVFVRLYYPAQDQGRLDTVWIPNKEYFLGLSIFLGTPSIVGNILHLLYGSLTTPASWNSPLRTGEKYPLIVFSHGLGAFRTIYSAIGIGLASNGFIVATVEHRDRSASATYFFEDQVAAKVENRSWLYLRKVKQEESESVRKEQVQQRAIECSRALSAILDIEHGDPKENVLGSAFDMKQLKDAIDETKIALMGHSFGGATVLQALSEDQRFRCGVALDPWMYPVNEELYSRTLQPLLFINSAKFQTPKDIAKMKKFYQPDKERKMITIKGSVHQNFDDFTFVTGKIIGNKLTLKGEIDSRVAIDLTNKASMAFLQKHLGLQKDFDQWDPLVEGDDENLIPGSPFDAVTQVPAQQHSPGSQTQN
The following applies: for inhibition at 1 µM: 1 μM inhibitor, read-out: % Inhibition at 1 μM, D = PLA2G7; for inhibition at 10 µM: 10 μM inhibitor, read-out: % Inhibition at 10 μM, D = PLA2G7; for IC50: mouse brain membrane fraction or cell lysates, 30 min preincubation at 37° C. How it is done:
as §1, §2

Read-outs that look alike come from different tables or passages of the source.

On to `Cc1cnn(C(=O)N2CCN(Cc3ccc(Oc4ccccc4)cc3)CC2)c1` [Example 17, (4-Methyl-1H-pyrazol-1-yl)(4-(4-phenoxybenzyl)piperazin-1-yl)methanone], for which the inhibition (usually how much of the control response was suppressed) at 1 µM in test [1] was over 75%; in test [2], 25 to 75%; in test [3], over 75%; in test [4], 25 to 75%. The inhibition at 10 µM in test [1] was over 75%; in test [2], over 75%; in test [3] it was over 75%; in test [4], under 25%.
As to `O=C(N1CCN(Cc2cncnc2)CC1)n1cc(-c2ccccc2)cn1` [Example 64, (4-Phenyl-1H-pyrazol-1-yl)(4-(pyrimidin-5-ylmethyl)piperazin-1-yl)methanone], the inhibition at 10 µM in test [1] was under 25%; in test [2], under 25%; in test [3], over 75%; in test [4], over 75%. Moreover, the inhibition at 1 µM in test [3] and in test [4] was over 75% each time.
For the compound `CCN(Cc1cccc(C)c1)C(=O)n1cc(Cl)cn1` [Example 135, 4-Chloro-N-ethyl-N-(3-methylbenzyl)-1H-pyrazole-1-carboxamide], the inhibition at 1 µM is 25 to 75% in test [1], over 75% in test [2], under 25% in test [3] and under 25% in test [4]. Further, the inhibition at 10 µM in test [1] was over 75%; in test [2], over 75%; in test [3], over 75%; in test [4] it was under 25%. In addition, the IC50 (usually the concentration that inhibits the measured activity by half) in test [1] is over 1000 nM; in test [2], 100 to 1000 nM; in test [3] it was over 1000 nM.
Regarding `O=C(N1CCN(Cc2ccc3c(c2)OCO3)CC1)n1cc(-c2ccccc2)cn1` [Example 58, (4-(Benzo[d][1,3]dioxol-5-ylmethyl)piperazin-1-yl)(4-phenyl-1H-pyrazol-1-yl)methanone], the inhibition at 1 µM in test [1] is under 25%; in test [2] it was over 75%; in test [3], over 75%; in test [4], over 75%. In addition, the inhibition at 10 µM in test [1], in test [2], in test [3] and in test [4] was over 75% in each case. For the same compound, the IC50 in test [3] was in the range of 100 to 1000 nM.
On to `COc1ccc(N2CCN(C(=O)n3cc(C(F)(F)F)cn3)CC2)cc1` [Example 235, (4-(4-Methoxyphenyl)piperazin-1-yl)(4-(trifluoromethyl)-1H-pyrazol-1-yl)methanone], for which the inhibition at 1 µM in test [1], in test [2], in test [3] and in test [4] was over 75% throughout. Moreover, the inhibition at 10 µM in test [1], in test [2], in test [3] and in test [4] was over 75% each time. Also, the IC50 in test [1], in test [2], in test [3] and in test [4] was under 100 nM throughout.
Regarding `O=C(N1CCN(Cc2cccc(C(F)(F)F)c2)CC1)n1cc(C(F)(F)F)cn1` [Example 272, (4-(Trifluoromethyl)-1H-pyrazol-1-yl)(4-(3-(trifluoromethyl)benzyl)piperazin-1-yl)methanone], the inhibition at 1 µM in test [1] (gel-based competitive ABPP), in test [2] (gel-based competitive ABPP), in test [3] (gel-based competitive ABPP) and in test [4] (gel-based competitive ABPP) was over 75% in each case. The IC50 in test [1] is under 100 nM; in test [2] it was under 100 nM; in test [3], under 100 nM; in test [4], 100 to 1000 nM.
Turning to `O=C(Nc1ccc2ccccc2c1)n1cccn1` [Example 40, N-(Naphthalen-2-yl)-1H-pyrazole-1-carboxamide], the inhibition at 1 µM in test [1], in test [2], in test [3] and in test [4] was under 25% each time. For the same compound, the inhibition at 10 µM in test [1] is over 75%; in test [2], under 25%; in test [3] it was under 25%; in test [4], under 25%.
In the case of `N#Cc1cnn(C(=O)N2CCN(Cc3ccc(C(=O)N4CCC4)cc3Cl)CC2)c1` [Example 283, 1-(4-(4-(Azetidine-1-carbonyl)-2-chlorobenzyl)piperazine-1-carbonyl)-1H-pyrazole-4-carbonitrile], the inhibition at 1 µM in test [1] (gel-based competitive ABPP), in test [2] (gel-based competitive ABPP), in test [3] (gel-based competitive ABPP) and in test [4] (gel-based competitive ABPP) was over 75% in each case. The inhibition at 10 µM in test [1] (gel-based competitive ABPP), in test [2] (gel-based competitive ABPP), in test [3] (gel-based competitive ABPP) and in test [4] (gel-based competitive ABPP) was over 75% throughout.
Turning to `O=C(N1CCN(Cc2ccccc2N2CCOCC2)CC1)n1cc(C(F)(F)F)cn1` [Example 281, (4-(2-Morpholinobenzyl)piperazin-1-yl)(4-(trifluoromethyl)-1H-pyrazol-1-yl)methanone], the inhibition at 1 µM in test [1] (gel-based competitive ABPP), in test [2] (gel-based competitive ABPP), in test [3] (gel-based competitive ABPP) and in test [4] (gel-based competitive ABPP) was over 75% each time.
With `N#Cc1cnn(C(=O)N2CCN(Cc3ccccc3)CC2)c1` [Example 9, 1-(4-Benzylpiperazine-1-carbonyl)-1H-pyrazole-4-carbonitrile], the inhibition at 1 µM in test [1], in test [2], in test [3] and in test [4] was over 75% in each case. The inhibition at 10 µM in test [1], in test [2], in test [3] and in test [4] was over 75% each time. The values for the IC50 in test [1], in test [2] and in test [3] were under 100 nM, 100 to 1000 nM and under 100 nM, respectively.
